Test results: US9499530B2 (HANGZHOU MINSHENG INSTITUTES FOR PHARMA RESEARCH, priority 2011, dated 2016)
Entries after “also recorded” stand apart in the source; their conditions may differ.

What was measured:
[1] = biological target: KDR (Vascular Endothelial Growth Factor Receptor 2) (Homo sapiens, UniProt P35968); experiment: ELISA protein tyrosine kinase inhibition, KDR; assay type: biochemical; conditions: for IC50: ELISA, Poly(Glu, Tyr) 4:1 substrate, ATP 5 μM, test samples at 10-5 mol/l, read-out: KDR inhibitory activity (IC50 class)
KDR (Vascular Endothelial Growth Factor Receptor 2), sequence (P35968 20-1356): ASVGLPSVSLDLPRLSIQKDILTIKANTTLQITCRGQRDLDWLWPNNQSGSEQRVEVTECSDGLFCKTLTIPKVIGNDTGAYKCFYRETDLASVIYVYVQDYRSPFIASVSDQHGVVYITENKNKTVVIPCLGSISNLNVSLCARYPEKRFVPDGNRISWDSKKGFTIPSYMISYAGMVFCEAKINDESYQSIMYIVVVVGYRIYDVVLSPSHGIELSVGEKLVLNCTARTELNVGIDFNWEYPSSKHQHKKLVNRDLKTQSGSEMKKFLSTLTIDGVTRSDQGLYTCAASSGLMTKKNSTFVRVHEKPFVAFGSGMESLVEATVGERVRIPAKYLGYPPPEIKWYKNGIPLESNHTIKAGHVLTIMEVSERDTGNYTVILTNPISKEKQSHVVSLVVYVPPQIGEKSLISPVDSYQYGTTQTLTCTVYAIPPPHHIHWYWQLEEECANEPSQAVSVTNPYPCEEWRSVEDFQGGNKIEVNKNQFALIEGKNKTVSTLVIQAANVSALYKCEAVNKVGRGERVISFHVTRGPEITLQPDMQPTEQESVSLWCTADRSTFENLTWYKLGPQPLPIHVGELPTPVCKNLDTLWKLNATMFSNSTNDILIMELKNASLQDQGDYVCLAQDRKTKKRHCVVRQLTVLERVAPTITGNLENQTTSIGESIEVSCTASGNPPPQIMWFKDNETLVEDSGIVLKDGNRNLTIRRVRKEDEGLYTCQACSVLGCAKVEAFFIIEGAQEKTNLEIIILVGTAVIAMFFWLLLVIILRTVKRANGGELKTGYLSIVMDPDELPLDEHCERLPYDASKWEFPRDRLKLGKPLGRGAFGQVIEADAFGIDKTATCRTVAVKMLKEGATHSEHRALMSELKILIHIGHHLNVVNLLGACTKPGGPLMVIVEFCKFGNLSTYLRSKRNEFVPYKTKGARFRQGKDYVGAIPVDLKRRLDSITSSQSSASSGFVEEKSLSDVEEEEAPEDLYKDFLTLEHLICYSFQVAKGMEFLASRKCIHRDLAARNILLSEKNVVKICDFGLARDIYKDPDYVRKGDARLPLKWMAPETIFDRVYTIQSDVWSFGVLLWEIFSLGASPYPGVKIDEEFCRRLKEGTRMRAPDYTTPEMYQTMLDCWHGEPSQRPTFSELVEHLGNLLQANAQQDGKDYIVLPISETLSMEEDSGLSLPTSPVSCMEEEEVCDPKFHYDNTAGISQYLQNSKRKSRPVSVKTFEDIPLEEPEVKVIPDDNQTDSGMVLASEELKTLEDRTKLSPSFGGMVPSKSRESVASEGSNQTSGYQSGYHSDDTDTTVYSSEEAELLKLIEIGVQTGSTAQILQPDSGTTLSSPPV
From the text: (§1) Determining the Effect of Test Samples at a Concentration of 10-5 Mol/l on the Activity of the Substrate Phosphoryation Catalyzed by EGFR (Epidermal Growth Factor Receptor 1), ErbB-2 (Epidermal Growth Factor Receptor 2), ErbB-4, KDR (Vascular Endothelial Growth Factor Receptor 2) Protein Tyrosine Kinases at Molecular Level
(§2) Enzyme-Linked Immunosorbent Assay (ELISA)
(§3) Main instrument: wavelength-tunable microplate reader (VERSAmax).
(§4) Main reagents: kinase reaction substrate Poly(Glu, Tyr) 4:1 from Sigma; anti-phosphotyrosine monoclonal antibody PY99 from Santa Cruz; horseradish peroxidase-labeled goat anti-mouse IgG from Calbiochem; ATP, DTT, OPD from Amresco, and ELISA plate from Corning.
(§5) Poly(Glu, Tyr)4:1 as an enzyme substrate was diluted by potassium ion-free PBS into 20 μg/ml, and an ELISA plate was coated and subjected to reaction for 12-16 h at 37° C. After the liquid in wells was removed, the plate was washed three time by T-PBS, 5 min for each time. The ELISA plate was then dried in an oven at 37° C. The coated wells were added with the test samples: the test samples were prepared for a stock solution with a concentration of 1×10^−2M in DMSO. The aliquot solution was stored at −20° C., and diluted to the desired concentration with reaction buffer before use. The resulting solution was added into the wells so that the final concentration of 10-5 mol/l in 100 μL reaction system can be obtained. At the same time, a positive control well was set up and a positive control compound Su11248 was added. ATP and test tyrosine kinases were added: ATP solution diluted with reaction buffer was added (the final concentration of ATP is 5 μM). Finally, the test tyrosine kinases solution diluted with reaction buffer was added. The total volume of the reaction system was […]. Meanwhile, a negative control well and a control well without enzyme were set up. The reaction system was placed in a wet box, and shaked for 1 hour at 37° C., shielding from light. After the reaction was complete, the plate was washed by T-PBS three times. Antibody PY99 was added at 100 μL/well; and the plate was shaked for 30 min at 37° C. After the reaction was complete, the plate was washed with T-PBS three times. Horseradish peroxidase-labeled goat anti-mouse IgG was added at 100 μL/well, and the plate was shaked for 30 min at 37° C. The plate was washed with T-PBS three times. OPD developing liquid was added at 100 μL/well, and reacted for 1-10 min at room temperature, shielding from light. 50 μL of 2 M H2SO4 was added to stop the reaction. A492 value was determined using wavelength-tunable microplate reader. The inhibition ratio of the samples can be calculated by the following equation: […]

[2] = biological target: EGFR (Epidermal Growth Factor Receptor 1) (Homo sapiens, UniProt P00533); experiment: ELISA protein tyrosine kinase inhibition, EGFR; assay type: biochemical; conditions: for IC50: ELISA, Poly(Glu, Tyr) 4:1 substrate, ATP 5 μM, test samples at 10-5 mol/l, read-out: EGFR inhibitory activity (IC50 class)
From the text: as §1, §2, §3, §4, §5

ErbB-4 = ErbB-4 (Homo sapiens, UniProt Q15303); experiment: ELISA protein tyrosine kinase inhibition, ErbB-4; assay type: biochemical; conditions: for IC50: ELISA, Poly(Glu, Tyr) 4:1 substrate, ATP 5 μM, test samples at 10-5 mol/l, read-out: ErbB4 inhibitory activity (IC50 class)
ErbB-4, sequence (Q15303 26-1308): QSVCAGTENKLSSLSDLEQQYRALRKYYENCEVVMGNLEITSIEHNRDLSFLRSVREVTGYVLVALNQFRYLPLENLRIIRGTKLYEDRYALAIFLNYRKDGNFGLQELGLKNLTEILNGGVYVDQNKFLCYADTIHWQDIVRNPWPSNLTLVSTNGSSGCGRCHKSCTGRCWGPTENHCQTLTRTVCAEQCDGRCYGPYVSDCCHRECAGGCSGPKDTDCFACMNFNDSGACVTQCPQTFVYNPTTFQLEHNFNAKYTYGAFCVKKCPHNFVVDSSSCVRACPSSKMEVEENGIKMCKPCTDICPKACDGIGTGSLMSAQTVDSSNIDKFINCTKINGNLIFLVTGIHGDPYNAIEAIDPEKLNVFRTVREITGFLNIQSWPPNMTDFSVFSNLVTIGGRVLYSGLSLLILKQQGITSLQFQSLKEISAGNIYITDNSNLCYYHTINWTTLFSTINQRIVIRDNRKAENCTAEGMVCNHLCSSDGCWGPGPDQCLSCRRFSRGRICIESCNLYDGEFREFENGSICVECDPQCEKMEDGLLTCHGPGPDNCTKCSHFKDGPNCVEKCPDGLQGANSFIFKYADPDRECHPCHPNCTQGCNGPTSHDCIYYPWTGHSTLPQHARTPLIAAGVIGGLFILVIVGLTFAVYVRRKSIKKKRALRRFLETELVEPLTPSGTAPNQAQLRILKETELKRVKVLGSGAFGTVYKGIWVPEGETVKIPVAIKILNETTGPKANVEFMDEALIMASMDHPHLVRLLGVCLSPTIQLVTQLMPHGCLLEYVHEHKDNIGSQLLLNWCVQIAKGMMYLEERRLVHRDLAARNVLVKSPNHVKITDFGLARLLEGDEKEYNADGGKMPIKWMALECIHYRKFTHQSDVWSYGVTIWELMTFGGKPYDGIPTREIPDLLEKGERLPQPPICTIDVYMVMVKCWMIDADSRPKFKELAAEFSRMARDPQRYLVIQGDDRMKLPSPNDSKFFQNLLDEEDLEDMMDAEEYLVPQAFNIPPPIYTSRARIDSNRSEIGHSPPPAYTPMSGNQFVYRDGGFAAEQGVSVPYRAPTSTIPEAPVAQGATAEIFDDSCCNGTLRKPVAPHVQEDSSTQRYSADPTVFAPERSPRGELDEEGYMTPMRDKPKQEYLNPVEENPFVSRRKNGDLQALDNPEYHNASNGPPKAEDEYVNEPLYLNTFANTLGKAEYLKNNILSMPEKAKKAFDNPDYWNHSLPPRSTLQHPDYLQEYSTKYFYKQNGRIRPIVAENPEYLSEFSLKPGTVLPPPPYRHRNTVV
From the text: as §1, §2, §3, §4, §5

[3] = biological target: ErbB-2 (Epidermal Growth Factor Receptor 2) (Homo sapiens, UniProt P04626); experiment: ELISA protein tyrosine kinase inhibition, ErbB-2; assay type: biochemical; conditions: Poly(Glu, Tyr) 4:1 substrate, ATP 5 μM, test samples at 10-5 mol/l, read-out: ErbB2 inhibitory activity (IC50 class)
From the text: as §1, §2, §3, §4, §5

[4] = system: human lung cancer A549 xenograft; experiment: Growth inhibition of A549 xenograft in nude mice; assay type: in vivo; conditions: for growth inhibition of human lung cancer A549 compared with positive control lapatinib (in words): xenograft in nude mice, 200 mg/kg
From the text: Objective of the test: Determining the inhibition of some compounds of the present invention to the growth of human lung cancer A549 transplanted into nude mice and the action intensity thereof.
1. Human lung cancer A549 xenograft in nude mice, which was set up by subcutaneously transplantion of the human lung cancer A549 cell lines into right axillary fossa of nude mice. The amount of inoculation is 2×10^6 cells/mouse. Xenograft inoculated into the nude mice was passaged for 3 generations before use.
2. The solvent used in the experiments is: 0.5% of hydroxypropylmethyl cellulose and 0.1% of Tween-80.
3. Vigorous growing tumor tissues were selected to be chopped into approximately 1 mm^3. Under sterile conditions, the tumor tissue blocks were subcutaneously transplanted into right axillary fossa of nude mice. The diameters of the xenograft in nude mice were measured with a vernier caliper. When tumors reached approximately 100-300 mm^3 in size, the animals were randomly divided into groups, wherein there are 12 animals in solvent control group, and 6 animals per group in the other groups. […] The administered dosages were both 200 mg/kg, 5 times per week for consecutive four weeks. The diameters of the tumors were measured twice per week. The negative control group was intragastricly administrated the same amount of solvent. After the experiment, the mice were sacrificed. The tumors were surgically stripped and weighed. The tumor volume (TV) was calculated by the following equation:
[formula] in which a and b represents for the length and the width respectively.
According to the measured results, the relative tumor volume (RTV) was calculated. The calculation equation was: RTV=Vt/V0, wherein V0 is the tumor volume measured during cage administration (i.e. d0), Vt is the tumor volume of each measurement. The evaluation index of anti-tumor activity was the relative tumor growth ratio T/C (%), which was calculated by the following equation: […]
TRTV: treatment group's RTV; CRTV: negative control group's RTV.

| IC50 [1] [µM] | IC50 [2] [µM] | IC50 [3] [µM] | Compound | inhibitory activity against KDR (in words) [1] | also measured |
| --- | --- | --- | --- | --- | --- |
| < 10 | < 10 | < 10 | CC(=O)OCCNCc1ccc(-c2ccc3ncnc(Nc4ccc(OCc5cccc(F)c5)c(Cl)c4)c3c2)o1 |  | IC50 (ErbB-4): < 10 µM |
|  |  |  | OCCCCNCc1ccc(-c2ccc3ncnc(Nc4ccc(OCc5cccc(F)c5)c(Cl)c4)c3c2)o1 [MS1, N-(3-chloro-4-((3-fluorobenzyl)oxy)phenyl)-6-(5-(((4-hydroxybutyl)amino)methyl)-2-furyl)-4-quinazolinamine] | better inhibitory activity; also recorded: higher inhibitory activity |  |
| < 10 | < 10 | < 10 | OCCCCNCc1ccc(-c2ccc3ncnc(Nc4ccc(OCc5cccc(F)c5)c(Cl)c4)c3c2)o1 [MS1·dimethanesulfonate, N-(3-chloro-4-((3-fluorobenzyl)oxy)phenyl)-6-(5-(((4-hydroxybutyl)amino)methyl)-2-furyl)-4-quinazolinamine] |  | IC50 (ErbB-4): < 10 µM |
|  |  |  | OCC(CO)NCc1ccc(-c2ccc3ncnc(Nc4ccc(OCc5cccc(F)c5)c(Cl)c4)c3c2)o1 [MS6, N-(3-chloro-4-((3-fluorobenzyl)oxy)phenyl)-6-(5-((2-(1,3-dihydroxypropyl)amino)methyl)-2-furyl)-4-quinazolinamine] | better inhibitory activity; also recorded: higher inhibitory activity | growth inhibition of human lung cancer A549 compared with positive control lapatinib (in words) [4]: better effective inhibition; also recorded: better growth inhibition effect |
|  |  |  | OCCN(CCO)Cc1ccc(-c2ccc3ncnc(Nc4ccc(OCc5cccc(F)c5)c(Cl)c4)c3c2)o1 [MS18, N-(3-chloro-4-((3-fluorobenzyl)oxy)phenyl)-6-(5-((bis(2-hydroxyethyl)amino)methyl)-2-furyl)-4-quinazolinamine] | better inhibitory activity; also recorded: higher inhibitory activity |  |
| < 10 | < 10 | < 10 | OCCN(CCO)Cc1ccc(-c2ccc3ncnc(Nc4ccc(OCc5cccc(F)c5)c(Cl)c4)c3c2)o1 [MS18·dimethanesulfonate, N-(3-chloro-4-((3-fluorobenzyl)oxy)phenyl)-6-(5-((bis(2-hydroxyethyl)amino)methyl)-2-furyl)-4-quinazolinamine] |  | IC50 (ErbB-4): < 10 µM |
|  |  |  | OCCNCc1ccc(-c2ccc3ncnc(Nc4ccc(OCc5cccc(F)c5)c(Cl)c4)c3c2)o1 [MS27, N-(3-chloro-4-((3-fluorobenzyl)oxy)phenyl)-6-(5-(((2-hydroxyethyl)amino)methyl)-2-furyl)-4-quinazolinamine] | better inhibitory activity; also recorded: higher inhibitory activity | growth inhibition of human lung cancer A549 compared with positive control lapatinib (in words) [4]: better effective inhibition; also recorded: better growth inhibition effect |
|  |  |  | OCC(O)CNCc1ccc(-c2ccc3ncnc(Nc4ccc(OCc5cccc(F)c5)c(Cl)c4)c3c2)o1 (stereo not shown) [MS31, N-(3-chloro-4-((3-fluorobenzyl)oxy)phenyl)-6-(5-(1-(2,3-dihydroxypropyl)amino)methyl-2-furyl)-4-quinazolinamine] | better inhibitory activity; also recorded: higher inhibitory activity |  |
| > 10 |  | < 10 | Fc1ccc(Nc2ncnc3ccc(-c4ccc(CNCCC5=CCCCC5)o4)cc23)cc1Cl [MS41, N-(3-chloro-4-fluorophenyl)-6-(5-(((2-(cyclohexenyl)ethyl)amino)methyl)-2-furyl)-4-quinazolinamine] |  |  |
|  |  |  | OCCCNCc1ccc(-c2ccc3ncnc(Nc4ccc(OCc5cccc(F)c5)c(Cl)c4)c3c2)o1 [MS42] | better inhibitory activity; also recorded: higher inhibitory activity |  |
| < 10 | < 10 | > 10 | Fc1cccc(COc2ccc(Nc3ncnc4ccc(-c5ccc(CNCC6CCCCC6)o5)cc34)cc2Cl)c1 [MS 7, N-(3-chloro-4-((3-fluorobenzyl)oxy)phenyl)-6-((5-((cyclohexylmethyl)amino)methyl)-2-furyl)-4-quinazolinamine] |  |  |
| < 10 | < 10 | > 10 | Fc1cccc(COc2ccc(Nc3ncnc4ccc(-c5ccc(CNCC6CCCC(Cl)C6)o5)cc34)cc2Cl)c1 (stereo not shown) [MS 9, N-(3-chloro-4-((3-fluorobenzyl)oxy)phenyl)-6-(5-((((3-chlorocyclohexyl)methyl)amino)methyl)-2-furyl)-4-quinazolinamine] |  |  |
| > 10 | < 10 | < 10 | Fc1cccc(COc2ccc(Nc3ncnc4ccc(-c5ccc(CNCCc6cccc(Cl)c6)o5)cc34)cc2Cl)c1 [MS 20, N-(3-chloro-4-((3-fluorobenzyl)oxy)phenyl)-6-(5-(((2-(3-chlorophenyl)ethyl)amino)methyl)-2-furyl)-4-quinazolinamine] |  |  |
|  | < 10 | < 10 | CSCCC(NCc1ccc(-c2ccc3ncnc(Nc4ccc(OCc5cccc(F)c5)c(Cl)c4)c3c2)o1)C(=O)O (stereo not shown) [MS 26, N-(3-chloro-4-((3-fluorobenzyl)oxy)phenyl)-6-(5-((((1-carboxy-3-methylthio)propyl)amino)methyl)-2-furyl)-4-quinazolinamine] |  | growth inhibition of human lung cancer A549 compared with positive control lapatinib (in words) [4]: better effective inhibition |
| > 10 |  | < 10 | CCCNCc1ccc(-c2ccc3ncnc(Nc4ccc(F)c(Cl)c4)c3c2)o1 [MS 36, N-(3-chloro-4-fluorophenyl)-6-(5-(((propyl)amino)methyl)-2-furyl)-4-quinazolinamine] |  | TV (mm^3) End ([4]; A549 xenograft, 200 mg/kg intragastric, 5 times per week for four weeks, end): 770.3 ± 212.8^▴ mm^3; TV (mm^3) Start ([4]; A549 xenograft, 200 mg/kg intragastric, start of dosing): 155.5 ± 72.8 mm^3; T/C (%) ([4]; A549 xenograft, relative tumor growth ratio, 200 mg/kg intragastric, 5 times per week for four weeks): 36.1%; Weight (g) End ([4]; nude mice with A549 xenograft, 200 mg/kg intragastric, 5 times per week for four weeks, end): 25.0 ± 1.8 g; Weight (g) Start ([4]; nude mice with A549 xenograft, 200 mg/kg intragastric, start of dosing): 24.5 ± 1.8 g; growth inhibition of human lung cancer A549 compared with positive control lapatinib (in words) [4]: better growth inhibition effect |
| > 10 |  | < 10 | CC=CCNCc1ccc(-c2ccc3ncnc(Nc4ccc(F)c(Cl)c4)c3c2)o1 [MS 39, N-(3-chloro-4-fluorophenyl)-6-(5-(((2-butenyl)amino)methyl)-2-furyl)-4-quinazolinamine] |  |  |
|  | < 10 | < 10 | N-(3-chloro-4-((3-fluorobenzyl)oxy)phenyl)-6-(5-((4-methylpiperazinyl)methyl)-2-pyrrolidinyl)-4-quinazolinamine [MS 34] |  | inhibitory activity against EGFR (in words) [2]: better inhibitory activity; inhibition of c-ErbB4/HER4 (in words) (ErbB-4): very good inhibition; IC50 (ErbB-4): < 10 µM |
